{"source": "ChEMBL document CHEMBL3585326", "about": "“Discovery of potent carbonic anhydrase and acetylcholine esterase inhibitors: novel sulfamoylcarbamates and sulfamides derived from acetophenones” (Bioorg Med Chem, 2015)"}
{"target": "Acetylcholinesterase (Homo sapiens, UniProt P22303)", "sequence (P22303 whole entry)": "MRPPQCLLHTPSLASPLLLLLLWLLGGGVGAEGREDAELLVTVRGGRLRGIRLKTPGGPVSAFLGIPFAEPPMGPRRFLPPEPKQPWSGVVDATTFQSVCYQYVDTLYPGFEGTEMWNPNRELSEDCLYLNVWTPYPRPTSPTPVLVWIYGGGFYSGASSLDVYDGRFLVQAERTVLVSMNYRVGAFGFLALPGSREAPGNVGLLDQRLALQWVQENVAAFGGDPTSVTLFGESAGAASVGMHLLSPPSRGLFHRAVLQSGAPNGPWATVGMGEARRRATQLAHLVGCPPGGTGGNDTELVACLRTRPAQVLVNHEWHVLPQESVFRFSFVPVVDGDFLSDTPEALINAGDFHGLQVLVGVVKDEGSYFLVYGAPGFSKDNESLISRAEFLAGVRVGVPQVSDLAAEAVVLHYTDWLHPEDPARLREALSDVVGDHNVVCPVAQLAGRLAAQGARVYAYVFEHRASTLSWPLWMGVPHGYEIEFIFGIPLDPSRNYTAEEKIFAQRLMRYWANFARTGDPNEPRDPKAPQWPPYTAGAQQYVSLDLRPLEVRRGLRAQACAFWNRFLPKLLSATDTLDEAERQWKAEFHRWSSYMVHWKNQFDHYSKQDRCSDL", "units": {"IC50": "nM", "Ki": "nM"}, "description": "Inhibition of acetylcholinesterase (unknown origin) assessed as AChI hydrolysis using AChI and DTNB as substrate by Ellman's method"}
{"smiles": "COc1cccc(OC)c1C(C)NS(N)(=O)=O", "note": "(stereo not given)", "IC50": 0.0269, "Ki": 0.0081}
{"smiles": "COc1ccccc1C(C)NS(N)(=O)=O", "note": "(stereo not given)", "IC50": 0.0269, "Ki": 0.0382}
{"smiles": "COc1ccc(C(C)NS(=O)(=O)NC(=O)OCc2ccccc2)cc1OC", "note": "(stereo not given)", "IC50": 0.0269, "Ki": 0.0051}
{"smiles": "COc1ccc(OC)c(C(C)NS(N)(=O)=O)c1", "note": "(stereo not given)", "IC50": 0.0269, "Ki": 0.0056}
{"smiles": "COc1ccc(C(C)NS(=O)(=O)NC(=O)OCc2ccccc2)cc1", "note": "(stereo not given)", "IC50": 0.0269, "Ki": 0.0045}
{"smiles": "COc1ccc(OC)c(C(C)NS(=O)(=O)NC(=O)OCc2ccccc2)c1", "note": "(stereo not given)", "IC50": 0.0269, "Ki": 0.0229}
{"smiles": "COc1ccc(C(C)NS(N)(=O)=O)cc1OC", "note": "(stereo not given)", "IC50": 0.0269, "Ki": 0.0049}
{"smiles": "COc1cccc(OC)c1C(C)NS(=O)(=O)NC(=O)OCc1ccccc1", "note": "(stereo not given)", "IC50": 0.0269, "Ki": 0.0105}
{"smiles": "COc1ccc(C(C)NS(N)(=O)=O)cc1", "note": "(stereo not given)", "IC50": 0.0269, "Ki": 0.0063}
{"smiles": "COc1ccccc1C(C)NS(=O)(=O)NC(=O)OCc1ccccc1", "note": "(stereo not given)", "IC50": 0.0269, "Ki": 0.0056}
